Experimental findings from PubChem BioAssay AID434951 (Broad Institute, 2010) are described below.

The term EC50 denotes the concentration at which the effect is half-maximal.

The source made the active and inactive calls.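 Rule for the calls: active = a fitted half-maximal concentration EC50 for the rise in nuclear signal no higher than ten times the top dose tested; inconclusive = flat fit with activity between 30% and 70%, or unusable fit; inactive = EC50 beyond ten times the top dose.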

Hypoxia-inducible factor 1-alpha (Homo sapiens), sequence (Q16665 whole entry, looked up): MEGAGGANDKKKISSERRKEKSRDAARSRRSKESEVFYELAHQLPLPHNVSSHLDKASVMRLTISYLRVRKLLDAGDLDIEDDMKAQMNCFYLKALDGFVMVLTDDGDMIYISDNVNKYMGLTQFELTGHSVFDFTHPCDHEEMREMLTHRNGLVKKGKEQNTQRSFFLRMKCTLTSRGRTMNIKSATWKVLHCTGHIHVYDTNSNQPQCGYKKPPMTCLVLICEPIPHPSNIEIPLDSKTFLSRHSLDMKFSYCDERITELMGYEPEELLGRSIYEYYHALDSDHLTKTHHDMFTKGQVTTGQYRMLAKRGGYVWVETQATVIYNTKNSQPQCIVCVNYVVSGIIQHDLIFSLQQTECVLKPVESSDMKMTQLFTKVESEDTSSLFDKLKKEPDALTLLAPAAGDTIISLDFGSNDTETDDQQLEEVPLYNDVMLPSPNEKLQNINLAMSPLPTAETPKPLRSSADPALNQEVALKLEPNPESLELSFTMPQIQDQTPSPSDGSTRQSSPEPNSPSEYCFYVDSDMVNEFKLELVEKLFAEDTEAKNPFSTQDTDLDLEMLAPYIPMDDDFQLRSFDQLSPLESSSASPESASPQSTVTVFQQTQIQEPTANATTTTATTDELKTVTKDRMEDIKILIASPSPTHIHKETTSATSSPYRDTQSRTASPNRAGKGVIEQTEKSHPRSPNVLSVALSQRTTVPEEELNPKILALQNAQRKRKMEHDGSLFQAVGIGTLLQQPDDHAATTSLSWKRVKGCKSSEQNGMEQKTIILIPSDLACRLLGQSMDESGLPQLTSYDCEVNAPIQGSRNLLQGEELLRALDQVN

This assay concerns the target Hypoxia-inducible factor 1-alpha (Homo sapiens) (UniProt Q16665). Description: HIF pathway activation, GFP-HIF1alpha translocation – imaging, fluorescence, U2OS GFP-HIF1alpha, confirmation (AID 434951). Particulars: U2OS GFP-HIF1alpha nuclear intensity, high-content imaging.
For `COc1ccc(N2CCN(C(=O)COc3ccc4c(C)c(C)c(=O)oc4c3C)CC2)cc1`, the EC50 is > 35 µM (inactive).

Turning to `COc1ccc(S(=O)(=O)N2CCC(c3cc(-c4cccc5ccccc45)n[nH]3)CC2)cc1`, the EC50 is > 35 µM (inactive).

For `Cc1cc(N/N=C/c2ccc(O)cc2O)nc(-c2ccccc2O)n1`, the EC50 was 4.53 µM. The figure for `CCCC(=O)NC(c1ccccc1Cl)c1ccc2cccnc2c1O` (stereo not drawn) is 6.66 µM; for `Cc1cccc(NC(=O)COc2cccc3c2CCN(C)C3=O)c1C` it is > 35 µM (inactive); for `COc1ccccc1C(=O)Nc1ccccc1SC(=O)c1ccccc1OC` it is > 35 µM (inactive). The figure for `COc1ccc(Nc2nc(N/N=C/c3ccc(N(C)C)cc3)nc(C)c2[N+](=O)[O-])cc1` is > 35 µM (inactive); for `CCSc1nc(NCCN(C)C)c2c3c(sc2n1)COC(C)(CC)C3` (stereo not drawn) it is > 35 µM (inactive). Then `Cc1ccc(NC(=O)Nc2cccc(F)c2)nc1`, with > 35 µM (inactive); and `COc1ccc(OC)c2sc(N3CCN(C(=O)c4ccc5ncsc5c4)CC3)nc12`, with > 35 µM (inactive). In the case of `CC(C)(C)c1ccc(N2C(=O)CC(C/C=C/c3ccccc3)C2=O)cc1` (stereo not drawn), the EC50 was > 35 µM (inactive).

Take `CCN(CC)CCn1c2ccccc2c2cnc(N)c(C#N)c21`: the EC50 is > 35 µM (inactive).

With `Cc1onc(-c2ccccc2)c1C(=O)Nc1ccc(S(=O)(=O)N2CCCC2)cc1`, the EC50 is > 35 µM (inactive). Then `O=[N+]([O-])c1cc(S(=O)(=O)c2ccc(O)c([N+](=O)[O-])c2)ccc1O`, with > 35 µM (inactive); and `COCCNC(=O)C(=O)NCC1OCCN1S(=O)(=O)c1cc(F)ccc1F` (stereo not drawn), with > 35 µM (inactive); and `Cc1c(Cl)cccc1NC(=S)N/N=C/c1ccccc1Cl`, with 14.8 µM. Then `Cc1cc(NC(=O)CCN2C(=O)/C(=C\c3ccccc3)SC2=S)no1`, with 34.4 µM; and `O=C(CCc1ccccc1)NC(c1cccs1)c1cc(Cl)c2cccnc2c1O` (stereo not drawn), with 35.2 µM; and `O=C(N/N=C/c1ccccn1)c1ccc(Br)cc1`, with 12.2 µM.

Turning to `CC(=O)Cn1c(=O)c2c(nc3n2CCCN3Cc2ccccc2)n(C)c1=O`, the EC50 was > 35 µM (inactive). The figure for `CCN(CC)CCNc1cc(C)nc2c1C(=O)C(=O)C=C2N1CCCCC1` is 3.63 µM; for `COc1ccc2cc3cc(C(=O)N4CCN(c5ccccn5)CC4)oc3nc2c1` it is > 35 µM (inactive); for `O=C(COC(=O)Cc1ccc(S(=O)(=O)N2CCCCC2)s1)Nc1ccc2c(c1)OCO2` it is > 35 µM (inactive).
